The text below walks through data of US20250034159A1, “INHIBITORS OF EPIDERMAL GROWTH FACTOR RECEPTOR” (ORIC Pharmaceuticals, Inc., priority 2021, published 2025).

The subject of one assay is BaF3_EGFR d19/CS cells. In words: Biological Activity Assay D: BaF3 cell proliferation assay, EGFR exon 19 deletion/C797S (BaF3 d19/CS). In kind it is cell-based. Conditions: Ba/F3 EGFR, read-out: BaF3 d19/CS IC50.
Another assay deals with BaF3_EGFR LR/CS cells. In words: Biological Activity Assay D: BaF3 cell proliferation assay, EGFR L858R/C797S mutant (BaF3 LR/CS). Conditions: Ba/F3 EGFR, read-out: BaF3 LR/CS IC50. It is filed as cell-based.
For assay [1], the target named is recombinant human EGFR exon 19 deletion/C797S double mutant protein (Homo sapiens (Human), UniProt P00533, C797S/DEL746-750). In words: Biological Activity Assay C: biochemical assay against EGFR exon 19 deletion/C797S protein (EGFR d19/CS). The essentials: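 Compounds were tested as 16-point serial dilutions (final DMSO 2.5%) with a Phosphosens peptide sensor/ATP working solution (40 uM/4 mM). The signal was read kinetically over 90 cycles at 120 s intervals. IC50s came from 4-parameter fits of per-well slopes.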

The test system of another assay is Ba/F3_EGFR WT cells. In words: Biological Activity Assay D: BaF3 cell proliferation assay, EGFR wild-type (BaF3 WT). In kind it is cell-based. Conditions: Ba/F3 EGFR, read-out: BaF3 WT IC50.
Where [2] appears, read: BaF3_EGFR d19/CS cells, ~72 hours, CellTiter-Glo.
[3] abbreviates: BaF3_EGFR LR/CS cells, ~72 hours, CellTiter-Glo.
Where [4] appears, read: Ba/F3_EGFR WT cells, ~72 hours, CellTiter-Glo.

Like-named read-outs stand apart in the source and are kept apart here.

Chain of recombinant human EGFR exon 19 deletion/C797S double mutant protein (P00533 other isoform, or with tags, fused parts or gaps C797S/del 1-668/del 746-750 limits assumed): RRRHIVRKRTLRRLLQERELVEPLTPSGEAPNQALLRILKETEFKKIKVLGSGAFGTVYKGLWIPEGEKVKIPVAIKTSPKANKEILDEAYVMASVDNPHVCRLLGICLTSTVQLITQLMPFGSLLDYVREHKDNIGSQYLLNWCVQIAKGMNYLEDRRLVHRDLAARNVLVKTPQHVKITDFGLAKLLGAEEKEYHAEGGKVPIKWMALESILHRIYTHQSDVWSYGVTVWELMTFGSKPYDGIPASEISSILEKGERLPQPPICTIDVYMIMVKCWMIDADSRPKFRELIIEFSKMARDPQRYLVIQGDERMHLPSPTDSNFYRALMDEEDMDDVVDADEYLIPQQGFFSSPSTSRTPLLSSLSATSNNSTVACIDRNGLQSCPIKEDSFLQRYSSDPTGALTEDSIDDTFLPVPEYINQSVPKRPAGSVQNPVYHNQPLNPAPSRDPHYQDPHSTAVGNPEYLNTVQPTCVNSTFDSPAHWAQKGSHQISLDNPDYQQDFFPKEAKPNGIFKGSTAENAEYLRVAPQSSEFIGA

Consider `Cn1ncc(-c2cc3c(-c4cn(CC(C)(C)O)nc4-c4ccc(F)cc4)ncnc3o2)c1C(F)F` [Example 267, 1-[4-{6-[5-(difluoromethyl)-1-methyl-1H-pyrazol-4-yl]furo[2,3-d]pyrimidin-4-yl}-3-(4-fluorophenyl)-1H-pyrazol-1-yl]-2-methylpropan-2-ol], for which the IC50 in the assay on BaF3_EGFR d19/CS cells (setting [2]) amounted to 16 nM; in the assay with BaF3_EGFR LR/CS cells (setting [3]) it was 22.2 nM; in assay [1] it was 0.185 nM; in the assay on Ba/F3_EGFR WT cells (setting [4]) it was 688 nM.
The corresponding values for `O=S1(=O)CC(n2cc(-c3ncnc4oc(-c5ccnnc5)cc34)c(-c3ccc(F)cc3)n2)C1` [Example 174, 3-{3-(4-fluorophenyl)-4-[6-(pyridazin-4-yl)furo[2,3-d]pyrimidin-4-yl]-1H-pyrazol-1-yl}-1λ6-thietane-1,1-dione] are 491 nM, 770 nM, 3.72 nM and 9070 nM.
In the same order, the values of `CN1CCN(Cc2cccc(-c3cc4c(-c5cn(C6CS(=O)(=O)C6)nc5-c5ccc(F)cc5)ncnc4o3)c2)CC1` [Example 205, 3-[3-(4-fluorophenyl)-4-(6-{3-[(4-methylpiperazin-1-yl)methyl]phenyl}furo[2,3-d]pyrimidin-4-yl)-1H-pyrazol-1-yl]-1λ6-thietane-1,1-dione] are 49.7 nM, 51 nM, 0.11 nM and 1280 nM.
For `O=S1(=O)CC(n2cc(-c3ncnc4oc(-c5ccccc5C(F)(F)F)cc34)c(-c3ccc(F)cc3)n2)C1` [Example 182, 3-[3-(4-fluorophenyl)-4-{6-[2-(trifluoromethyl)phenyl]furo[2,3-d]pyrimidin-4-yl}-1H-pyrazol-1-yl]-1λ6-thietane-1,1-dione], the IC50 was 392 nM in the assay on BaF3_EGFR d19/CS cells (setting [2]), 444 nM with BaF3_EGFR LR/CS cells (setting [3]), 1.65 nM in assay [1] and more than 20000 nM in the assay on Ba/F3_EGFR WT cells (setting [4]).
In the same order, the values of `Cn1ccc(-c2cc3c(-c4cn(CC(C)(C)O)nc4-c4ccc(F)cc4)ncnc3o2)n1` [Example 275, 1-{3-(4-fluorophenyl)-4-[6-(1-methyl-1H-pyrazol-3-yl)furo[2,3-d]pyrimidin-4-yl]-1H-pyrazol-1-yl}-2-methylpropan-2-ol] are 11.9 nM, 13.4 nM, 0.207 nM and 551 nM.
For `Fc1ccc(-c2nn([C@H]3CCOC[C@H]3F)cc2-c2ncnc3oc(-c4ccccc4)cc23)cc1` (racemic) [Example 184, 4-[1-(3-fluorooxan-4-yl)-3-(4-fluorophenyl)-1H-pyrazol-4-yl]-6-phenylfuro[2,3-d]pyrimidine], the IC50 was 57.6 nM in the assay on BaF3_EGFR d19/CS cells (setting [2]), 30.7 nM in the assay with BaF3_EGFR LR/CS cells (setting [3]), 0.26 nM in assay [1] and 1770 nM in the assay with Ba/F3_EGFR WT cells (setting [4]).
For the molecule `CCn1cc(-c2ncnc3oc(-c4ccccc4)cc23)c(-c2ccc(F)cc2)n1` [Example 179, 4-[1-ethyl-3-(4-fluorophenyl)-1H-pyrazol-4-yl]-6-phenylfuro[2,3-d]pyrimidine], the IC50 came to 41 nM in the assay on BaF3_EGFR d19/CS cells (72 h), 17.2 nM in the assay with BaF3_EGFR LR/CS cells (72 h), 0.39 nM in assay [1] and 2200 nM with Ba/F3_EGFR WT cells (72 h).
On to `N=S1(=O)CCC(n2cc(-c3ncnc4oc(-c5ccccc5)cc34)c(-c3ccc(F)cc3)n2)C1` (stereo not shown) [Example 161, 3-[3-(4-fluorophenyl)-4-(6-phenylfuro[2,3-d]pyrimidin-4-yl)-1H-pyrazol-1-yl]-1-imino-1λ6-thiolan-1-one], for which the IC50 in the assay with BaF3_EGFR d19/CS cells (setting [2]) worked out at 13.1 nM; with BaF3_EGFR LR/CS cells (setting [3]) it was 4.93 nM; in assay [1], 0.14 nM; with Ba/F3_EGFR WT cells (setting [4]) it was 565 nM.
The corresponding values for `N#CCCn1cc(-c2ncnc3oc(-c4cccnc4)cc23)c(-c2ccc(F)cc2)n1` [Example 268, 3-{3-(4-fluorophenyl)-4-[6-(pyridin-3-yl)furo[2,3-d]pyrimidin-4-yl]-1H-pyrazol-1-yl}propanenitrile] are 13.3 nM, 16.5 nM, 0.104 nM and 414 nM.
Turning to `Cn1cnc(-c2cc3c(-c4cn(C5CS(=O)(=O)C5)nc4-c4ccc(F)cc4)ncnc3o2)c1` [Example 200, 3-{3-(4-fluorophenyl)-4-[6-(1-methyl-1H-imidazol-4-yl)furo[2,3-d]pyrimidin-4-yl]-1H-pyrazol-1-yl}-16-thietane-1,1-dione], the IC50 was 8.78 nM in the assay on BaF3_EGFR d19/CS cells (72 h), 5.04 nM in the assay on BaF3_EGFR LR/CS cells (72 h), 0.13 nM in assay [1] and 412 nM in the assay with Ba/F3_EGFR WT cells (72 h).
Regarding `O=S1(=O)CC(n2cc(-c3ncnc4oc(-c5ccncc5)cc34)c(-c3ccc(F)cc3)n2)C1` [Example 165, 3-{3-(4-fluorophenyl)-4-[6-(pyridin-4-yl)furo[2,3-d]pyrimidin-4-yl]-1H-pyrazol-1-yl}-1λ6-thietane-1,1-dione], the IC50 was found to be 37 nM with BaF3_EGFR d19/CS cells (setting [2]), 20.6 nM in the assay with BaF3_EGFR LR/CS cells (setting [3]), 0.26 nM in assay [1] and 1090 nM in the assay with Ba/F3_EGFR WT cells (setting [4]).
Turning to `O=S1(=O)CC(n2cc(-c3ncnc4oc(-c5ncccn5)cc34)c(-c3ccc(F)cc3)n2)C1` [Example 195, 3-{3-(4-fluorophenyl)-4-[6-(pyrimidin-2-yl)furo[2,3-d]pyrimidin-4-yl]-1H-pyrazol-1-yl}-1λ6-thietane-1,1-dione], the IC50 is 365 nM in the assay on BaF3_EGFR d19/CS cells (setting [2]), 799 nM in the assay on BaF3_EGFR LR/CS cells (setting [3]), 6.89 nM in assay [1] and 6000 nM in the assay on Ba/F3_EGFR WT cells (setting [4]).
As for `CC(C)(C)OC(=O)N1CC(C#Cc2cc3c(-c4cn(C5CS(=O)(=O)C5)nc4-c4ccc(F)cc4)ncnc3o2)C1` [Example 132, tert-butyl 3-({4-[1-(1,1-dioxo-1λ6-thietan-3-yl)-3-(4-fluorophenyl)-1H-pyrazol-4-yl]furo[2,3-d]pyrimidin-6-yl}ethynyl)azetidine-1-carboxylate], the IC50 in the assay with BaF3_EGFR d19/CS cells (setting [2]) amounted to 860 nM; with BaF3_EGFR LR/CS cells (setting [3]), 1160 nM; in assay [1] it was 1.51 nM; in the assay on Ba/F3_EGFR WT cells (setting [4]), 5490 nM.
For `Fc1ccc(-c2nn([C@H]3CCOC[C@H]3F)cc2-c2ncnc3oc(-c4ccccc4)cc23)cc1` (single isomer, unassigned) [Example 210], the IC50 in the assay on BaF3_EGFR d19/CS cells (setting [2]) turned out to be 92.2 nM; in the assay on BaF3_EGFR LR/CS cells (setting [3]), 61.1 nM; in assay [1] it was 0.5 nM; in the assay on Ba/F3_EGFR WT cells (setting [4]), 1690 nM.
The corresponding values for `CC(C)(O)Cn1cc(-c2ncnc3oc(-c4cccnc4O)cc23)c(-c2ccc(F)cc2)n1` [Example 283, 3-{4-[3-(4-fluorophenyl)-1-(2-hydroxy-2-methylpropyl)-1H-pyrazol-4-yl]furo[2,3-d]pyrimidin-6-yl}pyridin-2-ol] are 9.47 nM, 9.79 nM, 0.113 nM and 657 nM.
As to `O=S1(=O)CC(n2cc(-c3ncnc4oc(C#CC5CCC5)cc34)c(-c3ccc(F)cc3)n2)C1` [Example 206, 3-{4-[6-(cyclobutylethynyl)furo[2,3-d]pyrimidin-4-yl]-3-(4-fluorophenyl)-1H-pyrazol-1-yl}-1λ6-thietane-1,1-dione], the IC50 in the assay with BaF3_EGFR d19/CS cells (setting [2]) is 1110 nM; in the assay with BaF3_EGFR LR/CS cells (setting [3]) it was 2500 nM; in assay [1] it was 6.02 nM; in the assay with Ba/F3_EGFR WT cells (setting [4]), more than 20000 nM.
Turning to `Fc1ccc(-c2nn([C@@H]3C[C@H]4CC[C@@H](C3)O4)cc2-c2ncnc3oc(-c4ccccc4)cc23)cc1` [Example 186, 4-{3-(4-fluorophenyl)-1-[(1R,3s,5S)-8-oxabicyclo[3.2.1]octan-3-yl]-1H-pyrazol-4-yl}-6-phenylfuro[2,3-d]pyrimidine], the IC50 with BaF3_EGFR d19/CS cells (setting [2]) came to 348 nM; with BaF3_EGFR LR/CS cells (setting [3]) it was 186 nM; in assay [1], 0.63 nM; with Ba/F3_EGFR WT cells (setting [4]), 4450 nM.
For `CC(=O)N1CC=C(c2nc3c(-c4cn(C5CS(=O)(=O)C5)nc4-c4ccc(F)cc4)ncnc3[nH]2)CC1` [Example 191, 3-{4-[8-(1-acetyl-1,2,3,6-tetrahydropyridin-4-yl)-9H-purin-6-yl]-3-(4-fluorophenyl)-1H-pyrazol-1-yl}-1λ6-thietane-1,1-dione], the IC50 with BaF3_EGFR d19/CS cells (setting [2]) is more than 20000 nM; with BaF3_EGFR LR/CS cells (setting [3]), more than 20000 nM; in assay [1], 0.65 nM; in the assay with Ba/F3_EGFR WT cells (setting [4]), more than 20000 nM.
For the molecule `CC(=O)N1C=C(c2cc3c(-c4cn(CC(C)(C)O)nc4-c4ccc(F)cc4)ncnc3o2)CCC1` [Example 260, 1-[5-{4-[3-(4-fluorophenyl)-1-(2-hydroxy-2-methylpropyl)-1H-pyrazol-4-yl]furo[2,3-d]pyrimidin-6-yl}-3,4-dihydropyridin-1 (2H)-yl]ethan-1-one], the IC50 with BaF3_EGFR d19/CS cells (setting [2]) worked out at 33 nM; in the assay on BaF3_EGFR LR/CS cells (setting [3]), 17 nM; in assay [1] it was 0.35 nM; in the assay with Ba/F3_EGFR WT cells (setting [4]), 1920 nM.
In the case of `CN1CCC(n2cc(-c3ncnc4oc(-c5ccccc5)cc34)c(-c3ccc(F)cc3)n2)C1=O` (stereo not shown) [Example 148, 3-[3-(4-Fluorophenyl)-4-(6-phenylfuro[2,3-d]pyrimidin-4-yl)-1H-pyrazol-1-yl]-1-methylpyrrolidin-2-one], the IC50 in the assay on BaF3_EGFR d19/CS cells (setting [2]) came out at 92.3 nM; in the assay on BaF3_EGFR LR/CS cells (setting [3]), 69.8 nM; in assay [1], 0.61 nM; with Ba/F3_EGFR WT cells (setting [4]), 1510 nM.
As for `N=[S@]1(=O)CC[C@H](n2cc(-c3ncnc4oc(-c5ccccc5)cc34)c(-c3ccc(F)cc3)n2)C1` (single isomer, unassigned) [Example 246], the IC50 was found to be 26.9 nM in the assay on BaF3_EGFR d19/CS cells (setting [2]), 10.6 nM in the assay on BaF3_EGFR LR/CS cells (setting [3]), 0.06 nM in assay [1] and 876 nM with Ba/F3_EGFR WT cells (setting [4]).
For the molecule `C[C@@H]1OCC[C@H]1n1cc(-c2ncnc3oc(-c4ccccc4)cc23)c(-c2ccc(F)cc2)n1` (single isomer, unassigned) [Example 213], the IC50 with BaF3_EGFR d19/CS cells (setting [2]) was 168 nM; in the assay on BaF3_EGFR LR/CS cells (setting [3]), 80.9 nM; in assay [1] it was 0.51 nM; in the assay on Ba/F3_EGFR WT cells (setting [4]), 2610 nM.
